# Counter-ions that a name gives are not always drawn.
# Columns and labels:
# [1] = test system: Patients with an International Prognostic System Score (IPSS) Low to Intermediate-1 Risk Myelodysplastic syndrome; experiment: Clinical study of ezatiostat hydrochloride tablets in IPSS low to intermediate-1 risk MDS patients: hematologic improvement (efficacy); assay type: in vivo, human; conditions: for Duration of HI-E Response, # Censored / Duration of HI-E Response, # Event: number of responders; for significant RBC transfusion reduction, patients: five of 11 patients; for HI-E Response Rate (95% Confidence Interval): hydrochloride
# [2] = Same clinical study: non-hematologic adverse events (safety, all patients treated); assay type: in vivo, human
# Procedure: Eighty-seven patients were randomized and treated at 23 investigational sites. After initial dose ranging in 14 patients, two dose levels were selected for further study. Subsequently, 37 patients were treated at 3 grams daily for two weeks followed by a one week rest period, and 36 patients were treated at 2 grams daily for three weeks followed by a one week rest period. The data on these 73 patients was pooled for this preliminary analysis.
# The safety data is based on all patients treated.
# MDS patients = conditions: patients administered lenalidomide; reported; cited from earlier work
# [3] = 1 g b.i.d. 3 weeks on & 1 week off
# [4] = 1.5 g b.i.d. 2 weeks on & 1 week off
compound,measurement,setting,value
"CCOC(=O)[C@@H](N)CCC(=O)N[C@@H](CSCc1ccccc1)C(=O)N[C@@H](C(=O)OCC)c1ccccc1 [Telintra, ezatiostat hydrochloride]","Duration of HI-E Response, # Censored, percent of responders",[1]; [3],(66.7%)
same,"Duration of HI-E Response, # Event, percent of responders",[1]; [3],(33.3%)
same,"Duration of HI-E Response, Median (95% CI)",[1]; [3],46.1 Weeks
same,"Duration of HI-E Response, Min, Max",[1]; [3],2.4-46.1 Weeks
same,"Time to HI-E Response, Median",[1]; 1 g b.i.d. 3 weeks on & 1 week off (N = 31),8.4 Weeks
same,"Time to HI-E Response, Mean","[1]; 1 g b.i.d. 3 weeks on & 1 week off (N = 31), 6 responders",8.9 Weeks
same,"Duration of HI-E Response, # Censored",[1]; [3],4
same,"Duration of HI-E Response, # Event",[1]; [3],2
same,"Duration of HI-E Response, # Censored, percent of responders",[1]; [4],(28.6%)
same,"Duration of HI-E Response, # Event, percent of responders",[1]; [4],(71.4%)
same,"Duration of HI-E Response, Median (95% CI)",[1]; [4],18.4 Weeks
same,"Duration of HI-E Response, Min, Max",[1]; [4],1.9-51.0 Weeks
same,"Time to HI-E Response, Median",[1]; 1.5 g b.i.d. 2 weeks on & 1 week off (N = 29),8.1 Weeks
same,"Time to HI-E Response, Mean","[1]; 1.5 g b.i.d. 2 weeks on & 1 week off (N = 29), 7 responders",8.4 Weeks
same,"Duration of HI-E Response, # Censored",[1]; [4],2
same,"Duration of HI-E Response, # Event",[1]; [4],5
same,bilineage HI rate (HI-E and HI-N),"[1]; 2 of 19 patients, 95% CI 1.3-33.1",11%
same,Hematologic Improvement-Neutrophil (HI-N) rate,"[1]; 3 of 20 patients, 95% CI 3.2-37.9",15%
same,"RBC transfusion independence, patients",[1]; 4 of 38 RBC transfusion-dependent patients,11%
same,"clinically significant RBC transfusion reduction (reduction of 4U/8 weeks, IWG 2006), patients",[1]; 11 of 38 RBC transfusion-dependent patients,29%
same,overall Hematologic Improvement-Erythroid (HI-E) rate,"[1]; 13 of 60 evaluable patients, pooled 3 g/day and 2 g/day schedules, 95% CI 12.1-34.2",22%
same,median hemoglobin level increase,[1]; in responders,2.0 gram/dL
same,increase in response rate,[1]; lenalidomide pre-treated vs not pre-treated patients,over 100%
same,effect of prior Revlimid treatment on HI-E response,[1]; logistic regression analysis,enhance HI-E response
same,HI-E rate,"[1]; no prior Revlimid, no prior DMTI, 6 of 23 patients, 95% CI 10.2%-48.4%",26%
same,"significant RBC transfusion reduction, patients","[1]; no prior Revlimid, no prior DMTI",45%
same,HI-E rate,"[1]; no prior Revlimid, prior DMTI, 0 of 17 patients, 95% CI 0%-19.5%",0%
same,complete cytogenetic response (number of patients),"[1]; of the four patients with del 5q minus, one had failed prior Revlimid",two
same,duration of complete remission following discontinuation of therapy,[1]; one patient,more than 12 months
same,HI-E Response Rate (95% Confidence Interval),"[1]; patients with no prior Revlimid (lenalidomide) treatment, N=27, efficacy evaluable population",about 22%
same,HI-E Response Rate (95% Confidence Interval),"[1]; patients with prior Revlimid (lenalidomide) treatment, N=13, efficacy evaluable population",about 46%
same,median duration of HI-E response,[1]; pooled schedules,46 weeks
same,range of duration of HI-E response,[1]; pooled schedules,2-51 weeks
same,change in odds for a HI-E response,"[1]; prior DMTI treatment, logistic regression, p=0.023",five-fold decrease
same,HI-E rate,"[1]; prior Revlimid, no prior DMTI, 6 of 15 patients, 95% CI 16.3%-67.7%",40%
same,"significant RBC transfusion reduction, patients","[1]; prior Revlimid, no prior DMTI",45%
same,"transfusion independence, patients","[1]; prior Revlimid, no prior DMTI, three of 11 patients",27%
same,cytogenetic complete responses (number of patients),[1]; whole study,three
same,"diarrhea, Grade 1 adverse event incidence",[2]; all patients treated,25%
same,"diarrhea, Grade 2 adverse event incidence",[2]; all patients treated,7%
same,"diarrhea, Grade 3 adverse event incidence",[2]; all patients treated,3%
same,"nausea, Grade 1 adverse event incidence",[2]; all patients treated,45%
same,"nausea, Grade 2 adverse event incidence",[2]; all patients treated,16%
same,"nausea, Grade 3 adverse event incidence",[2]; all patients treated,1%
same,"vomiting, Grade 1 adverse event incidence",[2]; all patients treated,30%
same,"vomiting, Grade 2 adverse event incidence",[2]; all patients treated,12%
same,"vomiting, Grade 3 adverse event incidence",[2]; all patients treated,2%
same,incidence of GI AEs with prior DMTI treatment,[2]; patients with prior DMTI treatment,increased incidence of GI AEs
"Nc1cccc2c1CN(C1CCC(=O)NC1=O)C2=O (stereo not drawn) [lenalidomide, 3-(4-amino-l-oxoisoindolin-2-yl)piperidine-2,6-dione]",patients exhibiting clinically recognizable response,MDS patients,about 50%
